Key:
[1] = molecular target: yeast α-glucosidase; conditions: against yeast α-glucosidase; cited from earlier work
[2] = molecular target: T1, Mtb GlgE (Mycobacterium tuberculosis, UniProt P9WQ17); assay: GlgE-coupled enzyme assay utilizing PNP; assay type: biochemical
T1 sequence (P9WQ17 1-701): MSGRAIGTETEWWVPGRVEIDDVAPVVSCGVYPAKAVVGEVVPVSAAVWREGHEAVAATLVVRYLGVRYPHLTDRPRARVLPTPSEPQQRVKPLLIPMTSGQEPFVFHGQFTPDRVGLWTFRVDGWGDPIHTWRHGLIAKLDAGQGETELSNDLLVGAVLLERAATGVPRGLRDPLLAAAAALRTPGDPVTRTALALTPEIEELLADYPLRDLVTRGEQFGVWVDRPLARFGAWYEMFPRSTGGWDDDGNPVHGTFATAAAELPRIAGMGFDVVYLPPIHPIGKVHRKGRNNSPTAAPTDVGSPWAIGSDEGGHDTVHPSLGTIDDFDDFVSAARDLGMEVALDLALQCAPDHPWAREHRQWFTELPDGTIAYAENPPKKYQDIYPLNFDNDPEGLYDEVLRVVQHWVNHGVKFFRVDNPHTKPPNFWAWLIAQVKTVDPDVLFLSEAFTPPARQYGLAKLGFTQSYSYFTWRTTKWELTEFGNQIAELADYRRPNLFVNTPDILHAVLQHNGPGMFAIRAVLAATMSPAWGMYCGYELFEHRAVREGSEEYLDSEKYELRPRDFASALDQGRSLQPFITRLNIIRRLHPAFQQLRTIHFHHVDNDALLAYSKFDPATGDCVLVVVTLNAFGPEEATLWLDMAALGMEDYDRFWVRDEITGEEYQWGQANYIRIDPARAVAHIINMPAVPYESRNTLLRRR

Compound	Ki [1]	Ki [2]
5-amino-5-deoxy-D-glucose [Compound 1]	6.3 µM	–
OC[C@H]1N[C@H](CO)[C@@H](O[C@H]2O[C@H](CO)[C@@H](O)[C@H](O)[C@H]2O)[C@@H]1O [Compound 9, 2,5-dideoxy-3-O-α-D-glucopyranosyl-2,5-imino-D-mannitol]	–	237 ± 27 µM
